Measurements: publication PMC10449633 (Nature Chemical Biology, 2023)
Numbered stars: 1 amine (or outer) side, 2 acyl side, 3 side chain; on linkers, the order of the positions; unused ones are H or OH. Square brackets hold non-standard residues; d marks the D form. Peptide text beside a SMILES is read from it. ξ: configuration not given here. X1 = CN(C(Cc1cn(Cc2ccc(Br)cc2)c2ccccc12)C(=O)[*:2])[*:1]; ξAla(CF3) = NC(CC(F)(F)F)C(=O)O; X2 = N#CCCC(O[*:1])C(=O)[*:2]; NMeL = CN[CH](CC(C)C)C(=O)O; NMeA = CN[CH](C)C(=O)O

System: SARS-CoV-2 spike protein
Assay type: cell-based

CC(C)CC1NC(=O)C(Cc2cn(Cc3ccc(Br)cc3)c3ccccc23)N(C)C(=O)C(CC(F)(F)F)NC(=O)C(CC(C)C)N(C)C(=O)C(CC(F)(F)F)NC(=O)C(CCC#N)OC(=O)C(C)N(C)C1=O (stereo not shown) [KZR-8445] (cyclo([X1]L[NMeA][X2][ξAla(CF3)][NMeL][ξAla(CF3)]); configuration not given here)
biogenesis of the Spike protein: inhibits
